Results reported in ChEMBL document CHEMBL5665443, “Enzyme Inhibitor Single Concentration assay results for EUbOPEN Chemogenomics Library” (2024).

Assays:
[1] = molecular target: G/T mismatch-specific thymine DNA glycosylase (Homo sapiens) (UniProt Q13569); conditions: Compound Concentration 10.0 uM;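 further: human TDG cleavage of quenched duplex DNA oligonucleotides coupled to APE1, strand release read as fluorescence at 594 nm, inhibition of TDG activity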
Description: Inhibition of TDG by quantifying inhibition of TDG-mediated cleavage and dissociation of quenched duplex DNA oligonucleotides, measured as fluorescence at 594 nm. To generate a functional strand incision and increase turn-over this assay is coupled to APE1.

[2] = molecular target: DNA-3-methyladenine glycosylase (Homo sapiens) (UniProt P29372); conditions: Compound Concentration 10.0 uM;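 further: enzyme assay where MPG cuts a quenched duplex DNA oligonucleotide probe, paired with APE1 for strand incision and turnover, read as fluorescence at 594 nm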
Description: Inhibition of MPG by quantifying inhibition of MPG-mediated cleavage and dissociation of quenched duplex DNA oligonucleotides, measured as fluorescence at 594 nm. To generate a functional strand incision and increase turn-over this assay is coupled to APE1.

[3] = molecular target: T1, Adenine DNA glycosylase (Homo sapiens) (UniProt Q9UIF7); conditions: Compound Concentration 10.0 uM, Hit No;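 further: human MUTYH activity read as 594 nm fluorescence from cleavage and release of a quenched DNA duplex, coupled with APE1 for strand incision, lower signal meaning inhibition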
T1 sequence (whole entry): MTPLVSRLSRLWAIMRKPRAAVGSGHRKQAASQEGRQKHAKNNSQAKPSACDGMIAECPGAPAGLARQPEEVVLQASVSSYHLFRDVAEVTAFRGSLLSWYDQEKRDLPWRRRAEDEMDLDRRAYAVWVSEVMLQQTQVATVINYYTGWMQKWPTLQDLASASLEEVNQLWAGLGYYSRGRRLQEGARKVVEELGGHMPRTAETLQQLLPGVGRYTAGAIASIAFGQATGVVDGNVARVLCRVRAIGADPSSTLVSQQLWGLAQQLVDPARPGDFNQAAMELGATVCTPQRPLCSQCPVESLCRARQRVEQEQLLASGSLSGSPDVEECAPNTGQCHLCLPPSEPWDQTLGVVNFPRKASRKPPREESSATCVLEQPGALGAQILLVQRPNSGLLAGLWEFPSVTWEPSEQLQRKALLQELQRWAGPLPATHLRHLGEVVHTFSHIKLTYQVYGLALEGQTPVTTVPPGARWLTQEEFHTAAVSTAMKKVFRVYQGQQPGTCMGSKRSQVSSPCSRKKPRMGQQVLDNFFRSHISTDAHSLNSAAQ
Description: Inhibition of MUTYH by quantifying inhibition of MUTYH-mediated cleavage and dissociation of quenched duplex DNA oligonucleotides, measured as fluorescence at 594 nm. To generate a functional strand incision and increase turn-over this assay is coupled to APE1.

[4] = molecular target: T2, Endonuclease 8-like 2 (Homo sapiens) (UniProt Q969S2); conditions: Compound Concentration 10.0 uM, Hit No;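 further: fluorescence at 594 nm reports NEIL2 cutting and release of a quenched double-stranded DNA oligo substrate, reduced signal read as inhibition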
T2 sequence (whole entry): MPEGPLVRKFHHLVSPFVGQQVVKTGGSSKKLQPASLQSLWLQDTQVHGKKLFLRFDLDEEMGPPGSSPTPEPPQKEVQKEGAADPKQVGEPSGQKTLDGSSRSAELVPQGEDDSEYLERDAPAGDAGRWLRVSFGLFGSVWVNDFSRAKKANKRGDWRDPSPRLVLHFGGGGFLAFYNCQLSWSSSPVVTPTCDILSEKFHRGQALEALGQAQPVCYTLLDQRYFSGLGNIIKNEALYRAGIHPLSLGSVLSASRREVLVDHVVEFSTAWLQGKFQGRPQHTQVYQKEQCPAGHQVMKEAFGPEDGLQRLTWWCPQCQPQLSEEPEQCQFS
Description: Inhibition of NEIL2 by quantifying inhibition of NEIL2-mediated cleavage and dissociation of quenched duplex DNA oligonucleotides, measured as fluorescence at 594 nm.

[5] = molecular target: Endonuclease 8-like 1 (Homo sapiens) (UniProt Q96FI4); conditions: Compound Concentration 10.0 uM, Hit No;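 further: fluorescence at 594 nm from quenched duplex DNA oligonucleotides released by NEIL1 cleavage and strand separation, reported as reduction of this enzyme activity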
Description: Inhibition of NEIL1 by quantifying inhibition of NEIL1-mediated cleavage and dissociation of quenched duplex DNA oligonucleotides, measured as fluorescence at 594 nm.

[6] = molecular target: N-glycosylase/DNA lyase (Homo sapiens) (UniProt O15527); conditions: Compound Concentration 10.0 uM, Hit No;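 further: OGG1 cleavage of a quenched duplex DNA oligonucleotide, coupled to APE1 for strand incision, read as fluorescence at 594 nm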
Description: Inhibition of OGG1 by quantifying inhibition of OGG1-mediated cleavage and dissociation of quenched duplex DNA oligonucleotides, measured as fluorescence at 594 nm. To generate a functional strand incision and increase turn-over this assay is coupled to APE1.

[7] = molecular target: T3, Endonuclease III-like protein 1 (Homo sapiens) (UniProt P78549); conditions: Compound Concentration 10.0 uM, Hit No;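 further: enzyme assay tracking NTHL1 cutting and release of a quenched double-stranded DNA oligo substrate, read as fluorescence at 594 nm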
T3 sequence (whole entry): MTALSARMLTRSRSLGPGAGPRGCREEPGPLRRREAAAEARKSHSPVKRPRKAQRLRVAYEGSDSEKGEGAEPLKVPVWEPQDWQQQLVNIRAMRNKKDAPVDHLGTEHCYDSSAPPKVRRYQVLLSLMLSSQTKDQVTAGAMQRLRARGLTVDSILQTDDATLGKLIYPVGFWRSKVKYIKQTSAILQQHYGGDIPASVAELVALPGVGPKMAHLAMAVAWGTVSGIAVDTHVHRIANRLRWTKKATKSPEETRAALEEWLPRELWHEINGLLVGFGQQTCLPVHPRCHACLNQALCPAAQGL
Description: Inhibition of NTHL1 by quantifying inhibition of NTHL1-mediated cleavage and dissociation of quenched duplex DNA oligonucleotides, measured as fluorescence at 594 nm.

[8] = molecular target: Uracil-DNA glycosylase (Homo sapiens) (UniProt P13051); conditions: Compound Concentration 10.0 uM, Hit No;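 further: UNG excision on a quenched double-stranded DNA oligo probe, with APE1 added for strand incision and turnover, read as fluorescence at 594 nm as strands separate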
Description: Inhibition of UNG by quantifying inhibition of UNG-mediated cleavage and dissociation of quenched duplex DNA oligonucleotides, measured as fluorescence at 594 nm. To generate a functional strand incision and increase turn-over this assay is coupled to APE1.

[9] = molecular target: T4, Single-strand selective monofunctional uracil DNA glycosylase (Homo sapiens) (UniProt Q53HV7); conditions: Compound Concentration 10.0 uM, Hit No;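 further: enzymatic SMUG1 assay coupled with APE1, reading fluorescence at 594 nm released when a quenched double-stranded DNA oligonucleotide substrate is cleaved and separated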
T4 sequence (whole entry): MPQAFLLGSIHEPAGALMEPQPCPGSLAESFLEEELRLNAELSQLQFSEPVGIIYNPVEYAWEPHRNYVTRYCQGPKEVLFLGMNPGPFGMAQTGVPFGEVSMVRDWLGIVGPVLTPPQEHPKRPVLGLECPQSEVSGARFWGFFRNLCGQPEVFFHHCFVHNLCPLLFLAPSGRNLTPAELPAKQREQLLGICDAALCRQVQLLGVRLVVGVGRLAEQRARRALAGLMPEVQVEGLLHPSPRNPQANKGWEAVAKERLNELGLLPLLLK
Description: Inhibition of SMUG1 by quantifying inhibition of SMUG1-mediated cleavage and dissociation of quenched duplex DNA oligonucleotides, measured as fluorescence at 594 nm. To generate a functional strand incision and increase turn-over this assay is coupled to APE1.

[10] = molecular target: Methyl-CpG-binding domain protein 4 (Homo sapiens) (UniProt O95243); conditions: Compound Concentration 10.0 uM;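 further: MBD4 activity read as fluorescence at 594 nm from cleavage and release of a quenched duplex DNA oligonucleotide, with APE1 coupled to incise the strand and raise turnover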
Methyl-CpG-binding domain protein 4 (Homo sapiens), sequence (O95243 whole entry, the tested form may be a part): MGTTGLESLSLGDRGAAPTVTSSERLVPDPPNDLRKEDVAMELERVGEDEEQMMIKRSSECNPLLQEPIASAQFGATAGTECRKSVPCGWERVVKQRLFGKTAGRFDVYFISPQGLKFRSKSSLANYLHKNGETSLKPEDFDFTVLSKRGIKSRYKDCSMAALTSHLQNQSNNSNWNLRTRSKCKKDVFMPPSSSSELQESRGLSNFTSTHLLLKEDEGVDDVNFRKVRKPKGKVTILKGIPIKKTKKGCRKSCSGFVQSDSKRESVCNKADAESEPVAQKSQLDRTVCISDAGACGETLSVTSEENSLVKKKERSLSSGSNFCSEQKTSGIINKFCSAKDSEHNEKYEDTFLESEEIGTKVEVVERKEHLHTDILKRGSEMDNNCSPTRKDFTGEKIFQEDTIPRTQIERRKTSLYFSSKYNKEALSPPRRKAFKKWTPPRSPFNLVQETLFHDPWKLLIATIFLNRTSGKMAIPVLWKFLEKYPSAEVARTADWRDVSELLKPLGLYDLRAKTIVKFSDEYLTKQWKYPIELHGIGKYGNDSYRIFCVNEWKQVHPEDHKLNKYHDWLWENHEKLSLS
Description: Inhibition of MBD4 by quantifying inhibition of MBD4-mediated cleavage and dissociation of quenched duplex DNA oligonucleotides, measured as fluorescence at 594 nm. To generate a functional strand incision and increase turn-over this assay is coupled to APE1.

Uracil-DNA glycosylase (Homo sapiens), sequence (P13051 whole entry): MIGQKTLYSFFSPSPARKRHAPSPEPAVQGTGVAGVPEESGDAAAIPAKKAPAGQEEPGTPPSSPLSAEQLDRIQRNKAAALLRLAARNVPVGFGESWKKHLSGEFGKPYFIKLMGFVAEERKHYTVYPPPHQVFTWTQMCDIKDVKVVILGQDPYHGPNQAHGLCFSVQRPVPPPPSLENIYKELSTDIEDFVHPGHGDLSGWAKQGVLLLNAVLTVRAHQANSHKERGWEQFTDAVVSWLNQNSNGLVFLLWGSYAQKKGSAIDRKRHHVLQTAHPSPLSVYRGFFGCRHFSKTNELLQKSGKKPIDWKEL
G/T mismatch-specific thymine DNA glycosylase (Homo sapiens), sequence (Q13569 whole entry): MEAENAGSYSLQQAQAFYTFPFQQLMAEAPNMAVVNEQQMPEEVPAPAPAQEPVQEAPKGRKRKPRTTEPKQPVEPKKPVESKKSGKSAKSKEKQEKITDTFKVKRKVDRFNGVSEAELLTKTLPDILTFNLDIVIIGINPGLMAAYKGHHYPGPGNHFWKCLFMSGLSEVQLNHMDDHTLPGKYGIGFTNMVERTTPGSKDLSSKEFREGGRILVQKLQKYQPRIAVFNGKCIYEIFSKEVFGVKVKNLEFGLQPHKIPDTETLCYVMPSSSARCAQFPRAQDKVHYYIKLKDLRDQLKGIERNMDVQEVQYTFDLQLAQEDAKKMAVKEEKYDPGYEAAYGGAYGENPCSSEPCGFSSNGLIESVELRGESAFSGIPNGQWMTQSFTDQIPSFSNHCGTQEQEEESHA
Endonuclease 8-like 1 (Homo sapiens), sequence (Q96FI4 whole entry): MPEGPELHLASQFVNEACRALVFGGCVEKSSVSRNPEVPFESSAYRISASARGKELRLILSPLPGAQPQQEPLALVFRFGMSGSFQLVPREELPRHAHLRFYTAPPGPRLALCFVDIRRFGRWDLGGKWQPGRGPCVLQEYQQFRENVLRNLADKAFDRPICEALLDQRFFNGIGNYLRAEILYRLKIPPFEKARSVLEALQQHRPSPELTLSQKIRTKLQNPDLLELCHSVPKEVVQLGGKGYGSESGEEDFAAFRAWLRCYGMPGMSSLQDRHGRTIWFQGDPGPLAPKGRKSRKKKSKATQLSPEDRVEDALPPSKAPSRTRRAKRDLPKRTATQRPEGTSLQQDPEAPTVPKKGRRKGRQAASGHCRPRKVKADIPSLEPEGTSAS
N-glycosylase/DNA lyase (Homo sapiens), sequence (O15527 whole entry): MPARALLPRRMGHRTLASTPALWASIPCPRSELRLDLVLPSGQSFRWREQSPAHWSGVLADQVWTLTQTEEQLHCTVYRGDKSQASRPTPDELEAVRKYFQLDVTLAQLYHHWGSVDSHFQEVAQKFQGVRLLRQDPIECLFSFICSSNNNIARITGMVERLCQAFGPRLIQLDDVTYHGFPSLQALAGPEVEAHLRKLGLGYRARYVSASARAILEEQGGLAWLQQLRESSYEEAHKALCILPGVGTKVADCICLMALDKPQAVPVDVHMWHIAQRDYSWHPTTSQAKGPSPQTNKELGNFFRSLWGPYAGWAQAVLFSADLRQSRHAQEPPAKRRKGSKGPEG
DNA-3-methyladenine glycosylase (Homo sapiens), sequence (P29372 whole entry): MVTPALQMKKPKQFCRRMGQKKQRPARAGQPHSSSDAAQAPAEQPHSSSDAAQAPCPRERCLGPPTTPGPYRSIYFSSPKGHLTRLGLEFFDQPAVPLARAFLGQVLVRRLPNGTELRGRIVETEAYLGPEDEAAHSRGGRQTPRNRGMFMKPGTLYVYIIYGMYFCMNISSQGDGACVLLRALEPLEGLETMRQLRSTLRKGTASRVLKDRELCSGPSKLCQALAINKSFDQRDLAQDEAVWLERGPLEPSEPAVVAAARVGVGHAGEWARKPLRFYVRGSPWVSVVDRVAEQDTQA

Row | Structure (SMILES) | inhibition ([1]; Hit No) [%] | inhibition ([2]; Hit No) [%] | inhibition [3] [%] | inhibition [4] [%] | inhibition [5] [%] | inhibition [6] [%] | inhibition [7] [%] | inhibition [8] [%] | inhibition [9] [%] | inhibition ([10]; Hit No) [%] | inhibition ([1]; Hit Yes) [%] | inhibition ([2]; Hit Yes) [%] | inhibition ([10]; Hit Yes) [%]
1 | Cc1ccc(O)c([C@H](CCN(C(C)C)C(C)C)c2ccccc2)c1 | 2.93 | -5.07 | 8.6 | 2.01 | 5.28 | -3.4 | -3.21 | – | – | – | – | – | –
2 | O=C(O)C1CN(Cc2ccc(-c3nc4cc(Cc5ccccc5F)ccc4s3)c(F)c2)C1 | -3.37 | -8.77 | -0.363 | -3.48 | -0.945 | -3.25 | 11.4 | – | – | – | – | – | –
3 | CCOC(=O)c1cc(C#N)c(N2CCC(C(=O)NS(=O)(=O)Cc3ccccc3)CC2)nc1C | 22.6 | 0.797 | 13.3 | -3.73 | -0.649 | 4.63 | – | -6.55 | 7.04 | 12 | – | – | –
4 | COCCn1c(C)c(C)s/c1=N\C(=O)C1C(C)(C)C1(C)C | 7.06 | -8.69 | 20.8 | 1.51 | 3.06 | 5.33 | – | -7.32 | -0.421 | -7.23 | – | – | –
5 | Cc1cnc(-c2cc(N3CCN(C(=O)CCS(C)(=O)=O)CC3)ncc2Cl)c(C)c1 | – | -9.96 | 0.917 | -4.23 | – | -3.06 | 15.8 | – | – | – | – | – | –
6 | COc1ccc(S(=O)(=O)N2c3ccc(Cl)cc3[C@](O)(c3ccccc3Cl)[C@@H]2C(=O)N2CCC[C@H]2C(N)=O)cc1OC | 10.6 | 8.66 | 28.9 | -0.733 | -2.72 | -5.95 | – | -8.37 | -8.03 | -7.23 | – | – | –
7 | COc1ccc(CNC(=O)c2cc(-c3cncc(Cl)c3)cnc2-c2ccccn2)nc1OC | 11.4 | -0.668 | -1 | 6.5 | -8.51 | -1.43 | – | -5.71 | -1.29 | 0.324 | – | – | –
8 | CCOc1nc2cccc(C(=O)O)c2n1Cc1ccc(-c2ccccc2-c2nnn[nH]2)cc1 | 6.47 | -3.68 | 2.84 | 7 | 2.02 | 0.813 | – | -8.46 | -0.0333 | 1.2 | – | – | –
9 | COc1ccc(C2(O)OC(=O)C(c3ccc4c(c3)OCO4)=C2Cc2cc(OC)c(OC)c(OC)c2)cc1 (stereo unspecified) | 8.23 | 13.2 | 22.7 | – | -4.95 | -9.68 | 15.1 | -1.01 | – | – | – | – | –
10 | O=C(O)CC/C=C\C[C@@H]1CO[C@H](c2ccccc2Cl)O[C@@H]1c1ccccc1O | 13.8 | 4.5 | 8.47 | 0.265 | -2.87 | -7.71 | – | -7.83 | 0.5 | 0.092 | – | – | –
11 | Cc1ccccc1-c1cc(N2CCN(C)CC2)ncc1N(C)C(=O)C(C)(C)c1cc(C(F)(F)F)cc(C(F)(F)F)c1 | -5.37 | -7.15 | -1.13 | 1.76 | 0.537 | -7.29 | 21.7 | – | – | – | – | – | –
12 | Cn1c(SCc2ccc(C(C)(C)C)cc2)nc(N)cc1=O | 8.05 | 9.09 | 6.33 | 5.25 | -0.435 | -4.44 | – | -6.37 | -4.37 | 12.4 | – | – | –
13 | NC(=O)c1ccc(CNC(=O)NC[C@H]2CN(Cc3ccc(Cl)c(Cl)c3)CCO2)cc1 | 19.2 | -0.36 | 5.52 | 16.2 | 7.06 | -7.25 | 15.8 | – | – | – | – | – | –

Now from value to compound:

Row | inhibition ([1]; Hit No) [%] | inhibition ([2]; Hit No) [%] | inhibition [3] [%] | inhibition [4] [%] | inhibition [5] [%] | inhibition [6] [%] | inhibition [7] [%] | inhibition [8] [%] | inhibition [9] [%] | inhibition ([10]; Hit No) [%] | inhibition ([1]; Hit Yes) [%] | inhibition ([2]; Hit Yes) [%] | inhibition ([10]; Hit Yes) [%] | Structure (SMILES)
14 | 6.86 | 0.18 | 11.5 | 12 | -2.28 | -3.11 | 6.32 | -8.86 | – | – | – | – | – | CN(C)CC[C@@H](c1ccc(Cl)cc1)c1ccccn1
15 | 20.7 | -1.67 | 2.07 | 14.5 | 0.537 | -0.224 | – | -0.695 | 0.0151 | 13.3 | – | – | – | CSc1ccc(C(=O)N[C@@H]2CCCC[C@@H]2NC(=O)CNC(=O)c2cc(C(F)(F)F)ccc2NC(=O)NC(C)C)cc1
16 | 3.7 | 0.18 | -6.25 | -3.48 | 3.21 | -1.8 | 20.2 | – | – | – | – | – | – | O=c1ccn([C@@H]2O[C@H](COP(=O)(O)OP(=O)(O)OP(=O)(O)OP(=O)(O)OC[C@H]3O[C@@H](n4ccc(=O)[nH]c4=O)[C@H](O)[C@@H]3O)[C@@H](O)[C@H]2O)c(=O)[nH]1
17 | 18.4 | 0.836 | 12.2 | 1.01 | 6.76 | -1.2 | – | -8.3 | -8.66 | -1.3 | – | – | – | Cc1ccccc1C(=O)Nc1ccc(C(=O)N2CCCC(O)c3cc(Cl)ccc32)c(C)c1 (stereo unspecified)
18 | – | – | 114 | 20.7 | -9.54 | 2.43 | – | -3.68 | -3.67 | – | 103 | 108 | 114 | CCCCCNC(=N)N/N=C/c1c[nH]c2ccc(OC)cc12
19 | 5 | -3.37 | 11.7 | 6.25 | -5.25 | -4.18 | 17.3 | – | – | – | – | – | – | C[C@@H](NCCc1ccc(O)cc1)[C@@H](O)c1ccc(O)cc1 (relative stereo)
20 | -4.42 | 2.96 | 11.3 | 7 | 7.21 | -5.93 | 22.4 | – | – | – | – | – | – | CCC(=O)OCC(=O)[C@@]1(OC(=O)CC)[C@@H](C)C[C@H]2[C@@H]3CCC4=CC(=O)C=C[C@]4(C)[C@@]3(Cl)[C@@H](O)C[C@@]21C
21 | 61.6 | 115 | 16.2 | 15.6 | -9.68 | 49.5 | – | 7.11 | 12.2 | 83.7 | – | – | – | CC(C)(C#Cc1ccc(NC(=O)COc2ccccc2C(=O)c2ccccc2)c(Cl)c1)C(=O)O
22 | 40 | 19.4 | 35.6 | 0.265 | 12.4 | 28.8 | – | 1.91 | -6.33 | 58.5 | – | – | – | CC(Cc1ccc(O)c(O)c1)C(C)Cc1ccc(O)c(O)c1 (stereo unspecified)
23 | 22.6 | 19.5 | 19.9 | 9.84 | 1.64 | -7.6 | – | -6.26 | 13.7 | 23.6 | – | – | – | CC(C1CC2CCC1C2)n1c(S)nnc1-c1ccco1 (stereo unspecified)
